Laboratory results as given in patent publication US20190216726A1, “Particles, Compositions and Methods for Ophthalmic and/or Other Applications” (priority 2016, published 2019).

Key:
Type in all cases: physicochemical
[1] = DLS particle size and PDI of hydrocortisone derivatives milled with Pluronic F127 (Examples 8, 9); settings: for PDI of milled suspension / Size (Z-averaged) of milled suspension: 5% compound, 5% F127 in PBS pH 7.1, milled 25 hours; for Milled suspension PDI / Milled suspension Size (Z-average): final form B
Method: (§1) A milling procedure was employed in which aqueous dispersions containing coarse compound particles were individually milled with F127 at near-neutral pH buffer using a grinding medium. Briefly, a slurry containing 5% of compound and 5% F127 in PBS (0.0067 M PO4^3−), pH 7.1 was added to an equal bulk volume of 1-mm ceria-stabilized zirconium oxide beads in a glass vial (e.g., 2 mL of slurry per 2 mL of beads). A magnetic stir bar was used to agitate the beads, stirring at approximately 500 rpm at ambient conditions for 25 hours.
The milled suspensions were subjected to dynamic light scattering (DLS) measurements to determine particle size and polydispersity index (PDI, a measure of the width of the particle size distribution). The samples for DLS measurements were buffered with HyClone™ PBS (Phosphate-Buffered Saline) to produce isotonic samples that have a physiologically relevant pH.
Form 3-B was wet-milled using the same method that generated the data in Tables 13 and 14.

[2] = HPLC chemical purity of milled suspensions (stability to milling)
Method: as §1
The HPLC method used to determine the purity of milled suspensions is as follows: column—SunFire™ C18, 3.5 μm, 3.0×150 mm, column temperature—40° C., flow rate—0.7 mL/min, detection wavelength—254 nm, flow gradient—50:50 (0 minutes) to 0:100 (10 minutes) 0.1% phosphoric acid/H2O:acetonitrile.

[3] = XRPD crystal form before and after milling; settings: milled with F127
Description: Particles were isolated by centrifugation, then resuspended in H2O and then recentrifuged. The wet sample was resuspended in H2O and deposited thinly and evenly onto a flat zero background sample holder (Rigaku 906165). The sample was allowed to air dry.
Milligram amounts were packed as an evenly thin layer of solid onto a zero background sample holder (Rigaku 906165).
XRPD patterns were obtained using a Rigaku MiniFlex 600 benchtop x-ray diffractometer equipped with a Cu X-ray tube (Cu/Kα=1.54059 Å), a six-position sample changer and a D/teX Ultra detector. […] Diffraction patterns were viewed and analyzed using PDXL analysis software provided by the instrument manufacturer. A reference standard silicon powder (NIST Standard Reference Material 640d) generated a peak at 28.43° and 28.45° two theta when samples were prepared as suspension in H2O (to simulate Procedure A) and Procedure B, respectively.
Except for Crystalline Form 1-B, the XRPD samples of all other forms were prepared using Procedure A (milled compounds) or Procedure B (neat compounds). […] was used to prepare the XRPD sample of Crystalline Form 1-B.
All input crystalline forms were arbitrarily designated as “A” forms. New forms that emerged after milling, if any, were sequentially designated as “B”, “C”, etc. An “A” form was not designated for Compound 2 since the input material was amorphous.

[4] = DLS particle size and PDI of drugs milled with F127 or SDS (Example 6)
Description: The technique described in Example 1 was applied to other non-polymeric solid particles to show the versatility of the approach. […] Table 12 lists the particle sizes for a representative selection of drugs that were milled using this method.

[5] = drug milled with stabilizer F127
[6] = drug milled with stabilizer SDS

| Structure (SMILES) | Size (Z-averaged) of milled suspension [1] [nm] | Purity after milling ([2]; after milling with F127) [%] | Crystal form change after milling of Input forms? [3] | PDI [4, 5] | Z-Ave D [4, 5] [nm] | PDI [4, 6] | Z-Ave D [4, 6] [nm] | further results |
| --- | --- | --- | --- | --- | --- | --- | --- | --- |
| C[C@]12CCC(=O)C=C1CC[C@@H]1[C@@H]2[C@@H](O)C[C@@]2(C)[C@H]1CC[C@]2(OC(=O)CCS(=O)(=O)c1ccccc1)C(=O)CO [Compound 1, (10R,11S,13S,17R)-11-hydroxy-17-(2-hydroxyacetyl)-10,13-dimethyl-3-oxo-2,3,6,7,8,9,10,11,12,13,14,15,16,17-tetradecahydro-1H-cyclopenta[a]phenanthren-17-yl 3-(phenylsulfonyl)propanoate] | 509 | <90 | Yes | – | – | – | – | PDI of milled suspension [1]: 0.318; Purity after milling ([2]; after milling with F127, listed as 7): < 90% |
| C[C@]12CCC(=O)C=C1CC[C@@H]1[C@@H]2[C@@H](O)C[C@@]2(C)[C@H]1CC[C@]2(OC(=O)c1ccco1)C(=O)CO [Compound 2, (10R,11S,13S,17R)-11-hydroxy-17-(2-hydroxyacetyl)-10,13-dimethyl-3-oxo-2,3,6,7,8,9,10,11,12,13,14,15,16,17-tetradecahydro-1H-cyclopenta[a]phenanthren-17-yl furan-2-carboxylate] | 238 | >96 | No | – | – | – | – | – |
| C[C@]12CCC(=O)C=C1CC[C@@H]1[C@@H]2[C@@H](O)C[C@@]2(C)[C@H]1CC[C@]2(OC(=O)Cc1ccc(Br)cc1)C(=O)CO [Compound 3, (10R,11S,13S,17R)-11-hydroxy-17-(2-hydroxyacetyl)-10,13-dimethyl-3-oxo-2,3,6,7,8,9,10,11,12,13,14,15,16,17-tetradecahydro-1H-cyclopenta[a]phenanthren-17-yl 2-(4-bromophenyl)acetate] | 341 | >96 | Yes | – | – | – | – | PDI of milled suspension [1]: 0.197; Milled suspension PDI ([1]; input form A): 0.197; Milled suspension Size (Z-average) ([1]; input form A): 341 nm; Milled suspension PDI ([1]; input form B): 0.154; Milled suspension Size (Z-average) ([1]; input form B): 262 nm |
| CCC(=O)O[C@]1(C(=O)SCF)[C@H](C)C[C@H]2[C@@H]3C[C@H](F)C4=CC(=O)C=C[C@]4(C)[C@@]3(F)[C@@H](O)C[C@@]21C [Fluticasone propionate] | – | – | – | 0.114 | 203 | 0.193 | 202 | – |
| NS(=O)(=O)c1cc(C(=O)O)c(NCc2ccco2)cc1Cl [Furosemide] | – | – | – | 0.119 | 217 | 0.146 | 200 | – |
| COc1ccc2c(c1)c(CC(=O)O)c(C)n2C(=O)c1ccc(Cl)cc1 [Indomethacin] | – | – | – | 0.123 | 225 | 0.154 | 216 | – |
| CCOC(=O)O[C@]1(C(=O)OCCl)CC[C@H]2[C@@H]3CCC4=CC(=O)C=C[C@]4(C)[C@H]3[C@@H](O)C[C@@]21C [Loteprednol etabonate] | – | – | – | 0.123 | 241 | 0.130 | 241 | – |
| C[C@]12C=CC(=O)C=C1CC[C@@H]1[C@@H]2[C@@H](O)C[C@@]2(C)[C@H]1CC[C@]2(O)C(=O)CO [Prednisolone] | – | – | – | 0.090 | 273 | 0.120 | 245 | – |
